Source: patent US20060204981A1, “Compositions for modulation of PARP and methods for screening for same” (priority 2005, published 2006)
Read-outs that look alike come from different tables or passages of the source.

Tests used:
HeLa cells [1] = experiment: NAD depletion assay; type: cell-based
Procedure: HeLa cells were plated at 6×10^5 cells per well (35 mm, 6-well dishes). Eighteen hours after plating, cells were treated with β-lapachone (0, 2, 4 or 8 μM) in growth media (DMEM; 10% FBS) for the time periods indicated (15, 30 and 60 minutes). Following drug treatment cells were washed 2× with PBS. Cells were subsequently lysed in 200 μL NAD lysis buffer (61 mM glycyl-glycine, pH 7.4, 0.1% Triton-X-100). Cellular lysates were clarified by centrifugation at 16,000 g for 10 minutes. Aliquots of clarified lysates were transferred to 96-well plates (25 μL samples in triplicate) for to determine NAD^+ concentrations.
Determination of lysate NAD levels was performed using a modification of the NAD recycling assay described by Ying et al. (PNAS, 98(21):12227-32 (2001)). Briefly, the NAD reaction mixture consisted of 0.1 mM 3-[4,5-dimethylthiazol-2-yl]-2,5-diphenyl-tetrazolium bromide (MTT), 0.9 mM phenazine methosulfate, 13 units/ml alcohol dehydrogenase (from yeast extract, Sigma), 100 mM nicotinamide, and 5.7% ethanol in 61 mM Gly-Gly buffer (pH 7.4). To each aliquot of cellular lysate, 200 μL of reaction mixture was added. Absorbance readings (560 nm) were taken every minute for five minutes. Results were calibrated with NAD^+ standards and were subsequently normalized to protein concentration as determined using the Bio-Rad protein Assay.

DLD1 cells = experiment: MTT cell death assay, DLD1 cells; type: cell-based, human
Procedure: (§1) Cell death was determined by the 3-(4,5-dimethylthiazol-2-yl)-2,5-diphenyl tetrazolium bromide (MTT) assay or by trypan blue exclusion, as indicated. Briefly, HeLa and DLD1 cells were plated in a 96-well plate at 10,000 cells per well, cultured for 24 h in complete growth medium, then treated with various concentrations of β-lapachone for 4 h MTT was added to a final concentration of 0.5 mg/ml, and incubated for 1 hr, followed by assessment of cell viability using a microplate reader at 570 nm. For the trypan blue exclusion assay, HeLa and DLD1 cells were plated in 6-well plate and treated in the same way. They were harvested, and trypan blue dye solution was added to the cell suspension. Total cell counts and viable cell numbers were determined with a hemacytometer. For the PARP inhibition study, cells were […] for 1 h with the PARP inhibitor 3-aminobenzamide (3-AB, 5 mM), and then co-treated with inhibitor and β-lapachone for a further 4 h, followed by MTT assay or trypan blue staining. […] HeLa and DLD1 cells were plated in 96-well plates at 10,000 cells per well, cultured for 24 h in complete growth medium, pretreated with PARP inhibitor 3-AB […] or equal volume of DMSO for 1 h, and then exposed to β-lapachone at various concentrations for a further 4 h, followed by MTT assay.

MCF7 cells = experiment: NAD+ supplementation experiment, MTT assay; type: cell-based; conditions: Homo sapiens, 4 h, MTT (FIG. 8), read-out: IC50 (cytotoxicity)
Procedure: For NAD^+ supplementation experiment, MCF7 cells were plated in 96-well plates at a density of 10,000 cells per well. Sixteen to eighteen hours later cells were pre-treated with […] 3-aminobenzamide, 10 mM NAD+, or vehicle control (all treatments in formulated in growth media: DMEM with 10% fetal bovine serum) for 1 hour at 37° C. Following this incubation, cells (under each pre-incubation treatment) were treated with β-lapachone at indicated concentrations for 4 hours at 37° C. An MTT assay was then performed as described above.

PARP [2] = experiment: PARP activity assay in cell lysate; type: biochemical, human; conditions: various β-lapachone concentrations vs 0 μM control, dose-dependent (FIG. 9)
Procedure: A cell extract was generated by scraping a 15 cm (˜80% confluent) dish of MCF7 cells into 1.5 ml of PARP buffer (50 mM Tris pH 8.0, 25 mM MgCl2) containing protease inhibitors. The cell suspension was sonicated at 30% amplitude with 3×10 second bursts on ice. The cell lysate was subsequently clarified by centrifugation at 16,000 g for 10 minutes at 4° C. Any remaining insoluble material was removed by passing the clarified lysate through a 5 ml syringe containing a cotton pad-filter. The protein concentration of extracts was typically between […]. PARP in vitro activity was determined using a modification of the PARP in vitro assay from TREVIGEN™. Reactions were comprised of the following: ˜60 μg of cellular protein, 100 μM NAD, 10 μg of histone H1, β-lapachone (at various concentrations) or DMSO control, 25 mM MgCl2, 50 mM Tris-Cl pH 8.0. Reactions were incubated for 10 minutes at room temperature and terminated by the addition of 900 μL of cold 25% trichloroacetic acid. Terminated reactions were incubated on ice for 10 minutes. TCA-precipitated proteins were isolated by passing reaction over glass-fiber filters under vacuum. Filters were subsequently washed three times with 5 ml of 5% TCA followed by 2 washes with cold ethanol. […] The amount of ^32P labeled NAD incorporated into polyribosylated proteins was then determined by liquid scintillation measurement.

PARP [3] = experiment: Immunofluorescence analysis with anti-poly(ADP-ribose) antibody, HeLa cells; type: cell-based
Procedure: HeLa and DLD1 cells were grown on coverslips for PARP activity experiments. Cells treated with 4 uM β-lapachone at different time points and fixed with methanol acetone (70/30, v/v) for 10 min at −20° C. Coverslips were air dried and rehydrated in PBS at room temperature for 10 min. Samples were than incubated in blocking buffer (PBS, 5% FBS) for 10 minutes at room temperature in a humid chamber. Cells were incubated overnight at 4° C. with monoclonal anti-poly(ADP-ribose) antibody (I OH, 1:100 dilution). After washing, the cells were incubated for 1 hr at room temperature with a 1:500 dilution of FITC conjugated anti-mouse antibody. For the PARP inhibition study, cells pre-teated for 1 h with the PARP inhibitor 3-aminobenzamide (3-AB, 5 mM), and then co-treated with inhibitor and β-lapachone for a further 10 minutes followed by immunofluorescence staining. Immunofluorescence was evaluated using an immunofluorescence microscope equipped with a CCD camera.
HeLa cells were grown on coverslips for 24 h, then treated with 4 μM β-lapachone at different time points and fixed with methanol acetone (70/30, v/v) for 10 min. Samples were incubated in blocking buffer (5% FBS in PBS) for 10 minutes at room temperature in a humid chamber. […] Immunofluorescence was evaluated using an immunofluorescence microscope equipped with a CCD camera. […]

HeLa cells [4] = experiment: MTT cell death assay, HeLa cells; type: cell-based; conditions: for cell survival percentage: MTT (FIG. 1)
Procedure: as §1

[5] = tested on: E2F1 tet-inducible DLD1 cells; experiment: Apoptosis in E2F1 tet-inducible DLD1 cells; type: cell-based
Text: To investigate E2F1 induced apoptosis, an inducible system was established. Human colon cancer cell lines harboring a mutated p53 gene were used to generate E2F1-inducible cell lines (Rodrigues, et al., PNAS, 87:7555-9 (1990)). […] Under the tetracycline induction conditions, a significant percentage of DLD1 cells undergoing apoptosis were detected at a given time point (10% at day 3; 15% at day 4) as determined by propidium iodide (PI) staining and flow cytometry (FIG. 10B). The apoptosis was further confirmed by assaying morphological changes following expression of E2F1 (FIG. 10C). Similar data was obtained in E2F1-inducible SW480 human colon cancer cells. In addition to proapoptotic function, E2F1 is a necessary transcription factor for cell proliferation (Johnson, D. et al., Nature 365:349-52 (1993); Wu, L. et al. Nature 414:457-62 (2001)). Under these experimental conditions, no significant changes in overall cell cycle distribution were observed.
To further investigate the mechanism of E2F1-induced apoptosis, the role of caspase activation was investigated. Two forms of caspase-3, procaspase and cleaved caspase were detected by western blot analysis. […] Further, it was determined if E2F1-induced, p53 independent apoptosis was affected by inhibiting caspase function with a pancaspase inhibitor. Apoptosis induced by camptothecin, a known caspase-3 activator, was used as a positive control.
Activation of PARP-1 has been implicated in caspase independent apoptosis. It was investigated whether E2F1 induced cell death involved PARP-1 activation. Poly ADP ribosylation (PAR), the functional indicator of PARP-1 activation, was detected by immunoblot with a specific anti-PAR antibody. […] Immunocytochemical staining of PAR further conformed the activity of PARP-1 (FIG. 11B). The nuclear PAR stain was increased after expression of E2F1 for 24 h and reached a plateau at 48 h. To determine if poly ADP ribosylation plays a causal role in E2F1 induced apoptosis, 3′-aminobenzamide (3′-AB), a universal inhibitor of PARP activity, was used.
Protein poly ADP ribosylation is catalysed by members of the poly (ADP-ribose) polymerase family that consists of 18 genes (Amé, J. C., et al., Bioessays 26:882-93 (2004)). The PARP-1 protein is the dominant member in most cells, which contributes the majority of overall poly ADP ribosylation induced by DNA damage (Davidovic, L. et al., Exp Cell Res 268:7-13 (2001)). To distinguish which member of the PARP family was involved in E2F1-induced apoptosis, siRNA technology was utilized to reduce PARP-1 protein levels. A chemically synthesized PARP-1 siRNA pool was electroporated into the DLD1-E2F1 inducible cell line. The PARP-1 protein began to decrease at day 2 and reached the lowest levels at day 4 and gradually recovered from day 6 as shown by western blot (FIG. 12A) and immunocytochemical staining. […] The E2F1-induced apoptosis was compromised following PARP-1 knockdown (P<0.001) (FIG. 12C).

For `CC1(C)CCC2=C(O1)c1ccccc1C(=O)C2=O` [β-lapachone, 3,4-dihydro-2,2-dimethyl-2H-naphtho [1,2-b]pyran-5,6-dione], the “cellular NAD+ levels” value (HeLa cells [1]; 8 μM β-lapachone, within 15 minutes (FIG. 7)) was ~20 % of control, the “cellular NAD+ levels” value (HeLa cells [1]; β-lapachone concentrations in excess of the IC50, by 30 minutes (FIG. 7)) was “less than 50 % of control” and the cell survival percentage (DLD1 cells; pretreated 1 h with PARP inhibitor 3-AB, then β-lapachone for 4 h, MTT (FIG. 1)) was “approximately 75%”. The IC50 (MCF7 cells; control (no NAD+ supplementation)) was roughly 2.7 µM, the IC50 (MCF7 cells; exogenous NAD+ supplementation (10 mM, 1 h pre-treatment)) was roughly 6.6 µM and the “PARP activity in cellular lysate” value (PARP [2]) was “induces enhancement of PARP activity above the basal level”. The “activation of PARP (anti-poly(ADP-ribose) fluorescence)” value (PARP [3]; 4 μM β-lapachone, 5 minutes to 2 hours (FIG. 4)) was “increases fluorescence”, the cell survival percentage (HeLa cells [4]; HeLa cells, pretreated 1 h with PARP inhibitor 3-AB, then β-lapachone for 4 h) was roughly 60% and the cell survival percentage (HeLa cells [4]; HeLa cells, β-lapachone for 4 h without 3-AB) was “approximately 5%”. It also gave an IC50 (HeLa cells [4]; Homo sapiens, HeLa, cytotoxicity IC50 quoted in the NAD+ depletion example, cell line not given) of roughly 2800 nM.

In the case of `NC(=O)c1cccc(N)c1` [3-aminobenzamide], the “effect on β-lapachone-mediated NAD+ depletion” value (HeLa cells [1]; data not shown) is reported as “inhibited”, the “effect on β-lapachone-induced cell death” value (DLD1 cells; 3-AB pretreatment 1 h, MTT) is reported as “blocked” and the “effect on apoptosis of addition alone” value ([5]; 3′-AB alone vs control group) is reported as “no effect on apoptosis”. The inhibition at 5000 µM ([5]; Homo sapiens, DLD-1, read-out: inhibition of E2F1 induced apoptosis) was greater than 70%, the “effect on β-lapachone induced activation of PARP” value (PARP [3]; 5 mM 3-AB 1 h, then 4 μM β-lapachone 10 minutes (FIG. 5)) was “blocked” and the “effect on β-lapachone-induced cell death” value (HeLa cells [4]; HeLa cells, 3-AB pretreatment 1 h, MTT) was “blocked”.

For Z-VAD, the “cytotoxic effects of addition alone” value ([5]; Z-VAD alone) was “no cytotoxic effects”, the “effect on camptothecin-induced apoptosis” value ([5]; Z-VAD at 50 μM (FIG. 10F)) was “blocked” and the “effect on E2F1-induced apoptosis” value ([5]; Z-VAD at 50 μM, tetracycline induction (FIG. 10F)) was “failed to block”.
